Source: patent publication US20200222347A1, “ANTIMICROBIALS AND METHODS OF USE THEREOF” (priority 2013, published 2020)
Entries after “also recorded” stand apart in the source; their conditions may differ.

Columns and labels:
[1] = system: C. albicans; test: Kirby-Bauer disc diffusion antimicrobial susceptibility; type: cell-based, Candida albicans; conditions: 100 mM, carrier water
[2] = system: S. aureus 33591 (MRSA); test: as above; type: cell-based, Staphylococcus aureus; conditions: 100 mM, carrier water; 18-24 hours for aerobes
[3] = system: Staphylococcus epidermidis ATCC 51625 (MRSE); test: In vitro antimicrobial test (FIG. 32); type: cell-based
[4] = system: Legionella 43662; type: cell-based
[5] = system: Pseudomonas Aeruginosa ATCC 700888 biofilm; test: Drip flow biofilm reactor, PCA coated cloth and sintered mesh, Example 7; type: cell-based
Text: The cloth was dried when tested.

[6] = system: Klebssilla pneumonia ATCC4352; test: Paper disc test with water or propylene glycol, Example 10; type: cell-based
[7] = system: normal human skin bacterial resident flora; test: Summary of the 4 Phase Testing at Loma Linda; type: in vivo
Method: A randomized double blinded study was performed at Loma Linda Medical School. It involved 4 phases over two years' time.

[8] = Amount of PCA that can be dissolved; type: physicochemical
Method: For instance the dose used on an open rodent taped stripped skin would be conditioned by the wound's tolerance of the vehicle which in this case would be water, normal saline or like. The amount of PCA for instance that can be dissolved in water is 1.24 grams per 100 ml. In the rodent the effective dose of C-3-G and PCA were expressed in […] (mM) as 25 to 200 mM dose. Conversion factors are necessary to make comparisons to larger doses used in other applications. 78 mM (mmole/L) PCA would be 12.021 g PCA per Liter. Therefore 25 mM/L would be 3.852 grams per liter or […]. The fluid applied was […] or 0.1 milliliter. Therefore, for example, the dose of PCA that was bactericidal on Pseudomonas aeruginosa on taped stripped rodent skin was 0.00038 grams. When treating intact normal human skin as in the Loma Linda Medical School testing, it was shown the 1.24 gram in 100 ml of water would only decrease the number of colonies of Propionibacterium acnes. Note that there was no skin penetration properties to water by this method. The increase of PCA concentration was possible to as much as 17% when in composition of matter was 70% isopropyl alcohol with propylene glycol and essences of peppermint oil. This composition had skin penetration properties. However the amount of liquid applied was no more than one milliliter by cotton swab. Therefore the topical dose on intact human skin was […] (estimated). This is many times that required for traumatized taped stripped skin.
For compositions applied to the skin or a bandage the PCA crystals need to be dissolved in a liquid. […] The use of isopropyl alcohol in the combination was not an obvious choice because isopropyl alcohol alone only is marginally effective in killing bacteria. So even after using isopropyl alcohol to dissolve the PCA, the inventor discovered that even at 10% PCA in isopropyl alcohol, the composition was only marginally effective. […]

[9] = system: Staphylococcus aureus ATCC 33591 (MRSA) biofilm; test: Single spray on biofilm on glass slides, time study, Example 8; conditions: for CFUs after spray: 30% PCA spray
[10] = system: skin stripped wounds infected with Pseudomonas aeruginosa (ATCC 27853); test: Histology of stripped, infected and treated skin wound, Example 6; conditions: 48 hours

O=C(O)c1ccc(O)c(O)c1 [PCA, Protocatechuic acid]
effectiveness against C. albicans [1]: effective; also recorded: susceptible | effectiveness against S. aureus 33591 (MRSA) [2]: effective | effectiveness against MRSE ATCC 51625 [3]: effective | effectiveness against Legionella 43662 [4]: effective | effectiveness against Pseudomonas biofilm ([5]; 10% concentration of PCA (FIG. 33)): not as effective | effectiveness against Pseudomonas biofilm ([5]; 20% concentration of PCA in 70% isopropyl alcohol, dried coating (FIG. 34)): effective; also recorded: very effective | inhibition of growth under the sample ([6]; PPG): I | zone of inhibition ([6]; PPG): 3 mm | inhibition of growth under the sample ([6]; Water): I | zone of inhibition ([6]; Water): 2 mm | optimal dose to act as a human skin disinfectant ([7]; in vivo): greater than 10% | removal of pathogens from human skin ([7]; solutions at 10% or higher): removed all pathogens | concentration possible in solution ([8]; 70% isopropyl alcohol with propylene glycol and essences of peppermint oil): ≤ 17% | amount that can be dissolved in water ([8]; Water): 1.24 grams per 100 ml | concentration achieved when dissolving in water ([8]; Water): ≤ 1.24% | CFUs after spray ([9]; after 30 minutes, from 60 million CFUs): 3 million | CFUs after spray ([9]; after 60 minutes, from 25 million): 2 million CFUs | biofilms killed ([9]; […], 30 minutes): 90% | collagen between the epidermis and dermis ([10]; 25 mM): collagen proliferation between the epidermis and dermis; also recorded: collagen layer formation | dermal layer ([10]; 25 mM): thickened | hair follicles ([10]; 25 mM): prominent with multiple cellular lining | inflammation ([10]; 25 mM): abundant inflammation | surface cellularity ([10]; 25 mM): abundant and multiple cell layers | vascularity ([10]; 25 mM): moderate vascularity | dermal layer ([10]; 50 mM): thicker | hair follicles ([10]; 50 mM): double layer of cells | inflammation ([10]; 50 mM): increased in the dermis and below the muscle layer | surface cellularity ([10]; 50 mM): covered with multiple layers of cells | vascularity ([10]; 50 mM): increased vascularity | tissue repair / healing response by histology ([10]; PCA 25 and 50 mM, C3G 100 and 200 mM): stimulated tissue repair
